Test results: patent US12655130B2 (ASSEMBLY BIOSCIENCES, INC., priority 2020, dated 2026)

test system: HBV viral load (viral production from HepAD38 cells); assay: Activity of test compounds on viral production from HepAD38 cells (viral load by qPCR of HBV core sequence); type: cell-based; conditions: Hepatitis B virus, HePAD38, 120 h, viral load lowering, 5 days, qPCR of supernatant, read-out: VL HepAD38 EC50 range
How it was run: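 HepAD38 cells seeded at 50,000/well in tetracycline-free medium with 2% FBS, treated 5 days at 37 °C with compounds from 10 μM top concentration. Supernatant HBV DNA quantified by TaqMan qPCR of core sequence against HBV DNA standards, relative to DMSO wells; viability by CellTiter-Glo; EC50/CC50 by four-parameter logistic fit.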

Row | SMILES | EC50
1 | Cn1cnc(C2CC3CC(O)(Cc4c(Br)cnn4C)CC3C2)c1C(=O)Nc1ccc(F)c(Cl)c1 (stereo not shown) [Example 123, 4-(5-((4-bromo-1-methyl-1H-pyrazol-5-yl)methyl)-5-hydroxyoctahydropentalen-2-yl)-N-(3-chloro-4-fluorophenyl)-1-methyl-1H-imidazole-5-carboxamide] | < 10 nM
2 | Cc1nc(C2CC3CC(O)(c4nccn4C)CC3C2)c(C(=O)Nc2ccc(F)c(Cl)c2)n1C (single isomer, unassigned) [Example 27, N-(3-Chloro-4-fluorophenyl)-4-(5-hydroxy-5-(1-methyl-1H-imidazol-2-yl)octahydropentalen-2-yl)-1,2-dimethyl-1H-imidazole-5-carboxamide] | < 10 nM
3 | Cn1cc(C2(O)CC3CC(c4ncn(C)c4C(=O)Nc4ccc(F)c(Cl)c4)CC3C2)c(C#N)n1 (stereo not shown) [Example 180, N-(3-Chloro-4-fluorophenyl)-4-(5-(3-cyano-1-methyl-1H-pyrazol-4-yl)-5-hydroxyoctahydropentalen-2-yl)-1-methyl-1H-imidazole-5-carboxamide] | < 10 nM
4 | CC(C)c1cc(C2(O)CC3CC(c4ncn(C)c4C(=O)Nc4ccc(F)c(Cl)c4)CC3C2)n(C)n1 (stereo not shown) [Example 94, N-(3-chloro-4-fluorophenyl)-4-(5-hydroxy-5-(3-isopropyl-1-methyl-1H-pyrazol-5-yl)octahydropentalen-2-yl)-1-methyl-1H-imidazole-5-carboxamide] | < 10 nM
5 | Cn1cc(C2(O)CC3CC(c4ncn(C)c4C(=O)Nc4ccc(F)c(Cl)c4)CC3C2)c(C(O)C(F)(F)F)n1 (stereo not shown) [Example 191, N-(3-Chloro-4-fluorophenyl)-4-(5-hydroxy-5-(1-methyl-3-(2,2,2-trifluoro-1-hydroxyethyl)-1H-pyrazol-4-yl)octahydropentalen-2-yl)-1-methyl-1H-imidazole-5-carboxamide] | 50 to 500 nM
6 | Cn1cnc(C2CC3CC(O)(c4c(C#N)cnn4C)CC3C2)c1C(=O)Nc1ccc(F)c(Cl)c1 (stereo not shown) [Example 125, N-(3-chloro-4-fluorophenyl)-4-(5-(4-cyano-1-methyl-1H-pyrazol-5-yl)-5-hydroxyoctahydropentalen-2-yl)-1-methyl-1H-imidazole-5-carboxamide] | < 10 nM
7 | Cn1c(N)nc(C2CC3CC(O)CC3C2)c1C(=O)Nc1ccc(F)c(Cl)c1 (stereo not shown) [Example 28, 2-Amino-N-(3-chloro-4-fluorophenyl)-4-(5-hydroxyoctahydropentalen-2-yl)-1-methyl-1H-imidazole-5-carboxamide] | < 10 nM
8 | Cn1cnc(C2CC3CC(O)(c4cc(OCC(C)(C)O)nn4C)CC3C2)c1C(=O)Nc1ccc(F)c(Cl)c1 (stereo not shown) [Example 55, N-(3-Chloro-4-fluorophenyl)-4-(5-hydroxy-5-(3-(2-hydroxy-2-methylpropoxy)-1-methyl-1H-pyrazol-5-yl)octahydropentalen-2-yl)-1-methyl-1H-imidazole-5-carboxamide] | < 10 nM
9 | Cc1nc(C2CC3CC(O)(c4c(Cl)cnn4C)CC3C2)c(C(=O)Nc2ccc(F)c(Cl)c2)n1C (stereo not shown) [Example 138, 4-(5-(4-Chloro-1-methyl-1H-pyrazol-5-yl)-5-hydroxyoctahydropentalen-2-yl)-N-(3-chloro-4-fluorophenyl)-1,2-dimethyl-1H-imidazole-5-carboxamide] | < 10 nM
10 | O=C(Nc1ccc(F)c(Cl)c1)c1[nH]cnc1C1CC2CC(O)CC2C1 (stereo not shown) [Example 223] | 50 to 500 nM
11 | Cn1cnc(C2CC3CC(O)(c4cc(N)nn4C)CC3C2)c1C(=O)Nc1ccc(F)c(Cl)c1 (stereo not shown) [Example 51, 4-(5-(3-Amino-1-methyl-1H-pyrazol-5-yl)-5-hydroxyoctahydropentalen-2-yl)-N-(3-chloro-4-fluorophenyl)-1-methyl-1H-imidazole-5-carboxamide] | < 10 nM
12 | CN(C)Cc1cnn(C)c1C1(O)CC2CC(c3ncn(C)c3C(=O)Nc3ccc(F)c(Cl)c3)CC2C1 (single isomer, unassigned) [Example 70, N-(3-Chloro-4-fluorophenyl)-4-(5-(4-((dimethylamino)methyl)-1-methyl-1H-pyrazol-5-yl)-5-hydroxyoctahydropentalen-2-yl)-1-methyl-1H-imidazole-5-carboxamide] | < 10 nM
13 | O=C(Nc1ccc(F)c(Cl)c1)c1ocnc1C1CC2CC(O)CC2C1 (stereo not shown) [Example 36, N-(3-Chloro-4-fluorophenyl)-4-(5-hydroxyoctahydropentalen-2-yl)oxazole-5-carboxamide] | 50 to 500 nM
14 | Cn1cnc(C2CC3CC(O)(c4cc(OCC(O)CO)nn4C)CC3C2)c1C(=O)Nc1ccc(F)c(Cl)c1 (stereo not shown) [Example 204, N-(3-Chloro-4-fluorophenyl)-4-(5-(3-(2,3-dihydroxypropoxy)-1-methyl-1H-pyrazol-5-yl)-5-hydroxyoctahydropentalen-2-yl)-1-methyl-1H-imidazole-5-carboxamide] | < 10 nM
15 | Cn1cnc(C2CC3CC(O)(c4nn(C)c(C(F)(F)F)c4Br)CC3C2)c1C(=O)Nc1ccc(F)c(Cl)c1 (stereo not shown) [Example 142, 4-(5-(4-Bromo-1-methyl-5-(trifluoromethyl)-1H-pyrazol-3-yl)-5-hydroxyoctahydropentalen-2-yl)-N-(3-chloro-4-fluorophenyl)-1-methyl-1H-imidazole-5-carboxamide] | < 10 nM
16 | Cn1cnc(C2CC3CC(O)(c4cc(C#N)nn4C)CC3C2)c1C(=O)Nc1ccc(F)c(Cl)c1 (stereo not shown) [Example 57, N-(3-Chloro-4-fluorophenyl)-4-(5-(3-cyano-1-methyl-1H-pyrazol-5-yl)-5-hydroxyoctahydropentalen-2-yl)-1-methyl-1H-imidazole-5-carboxamide] | < 10 nM
17 | Cn1cnc(C2CC3CC(O)(c4ccccc4)CC3C2)c1C(=O)Nc1ccc(F)c(Cl)c1 (stereo not shown) [Example 8, N-(3-Chloro-4-fluorophenyl)-4-(5-hydroxy-5-phenyloctahydropentalen-2-yl)-1-methyl-1H-imidazole-5-carboxamide] | < 10 nM
18 | Cn1cnc(C2CC3CC(O)(c4cc(OCC(C)(O)CO)nn4C)CC3C2)c1C(=O)Nc1ccc(F)c(Cl)c1 (stereo not shown) [Example 218, N-(3-Chloro-4-fluorophenyl)-4-(5-(3-(2,3-dihydroxy-2-methylpropoxy)-1-methyl-1H-pyrazol-5-yl)-5-hydroxyoctahydropentalen-2-yl)-1-methyl-1H-imidazole-5-carboxamide] | < 10 nM
19 | CCC(C)n1nc(N)cc1C1(O)CC2CC(c3ncn(C)c3C(=O)Nc3ccc(F)c(Cl)c3)CC2C1 (stereo not shown) [Example 161, 4-(5-(3-Amino-1-(sec-butyl)-1H-pyrazol-5-yl)-5-hydroxyoctahydropentalen-2-yl)-N-(3-chloro-4-fluorophenyl)-1-methyl-1H-imidazole-5-carboxamide] | < 10 nM
20 | CC(CO)COc1cc(C2(O)CC3CC(c4ncn(C)c4C(=O)Nc4ccc(F)c(Cl)c4)CC3C2)n(C)n1 (stereo not shown) [Example 211, N-(3-Chloro-4-fluorophenyl)-4-(5-hydroxy-5-(3-(3-hydroxy-2-methylpropoxy)-1-methyl-1H-pyrazol-5-yl)octahydropentalen-2-yl)-1-methyl-1H-imidazole-5-carboxamide] | < 10 nM
21 | CC(N)C(=O)Nc1cc(C2(O)CC3CC(c4ncn(C)c4C(=O)Nc4ccc(F)c(Cl)c4)CC3C2)n(C)n1 (stereo not shown) [Example 219, 4-(5-(3-(2-Aminopropanamido)-1-methyl-1H-pyrazol-5-yl)-5-hydroxyoctahydropentalen-2-yl)-N-(3-chloro-4-fluorophenyl)-1-methyl-1H-imidazole-5-carboxamide] | < 10 nM
22 | CN(C)C1CC2CC(c3ncn(C)c3C(=O)Nc3ccc(F)c(Cl)c3)CC2C1 (stereo not shown) [Example 43, 5-[5-(Dimethylamino)-1,2,3,3a,4,5,6,6a-octahydropentalen-2-yl]-N-(3-chloro-4-fluorophenyl)-3-methyl-4-imidazolecarboxamide] | 10 to 50 nM
23 | Cn1cc(C(F)(F)F)c(C2(O)CC3CC(c4ncn(C)c4C(=O)Nc4ccc(F)c(Cl)c4)CC3C2)n1 (stereo not shown) [Example 156, N-(3-Chloro-4-fluorophenyl)-4-(5-hydroxy-5-(1-methyl-4-(trifluoromethyl)-1H-pyrazol-3-yl)octahydropentalen-2-yl)-1-methyl-1H-imidazole-5-carboxamide] | < 10 nM
24 | Cn1cnc(C2CC3CC(N4CCOCC4)CC3C2)c1C(=O)Nc1ccc(F)c(Cl)c1 (stereo not shown) [Example 47, 5-[-5-(4-Morpholinyl)-1,2,3,3a,4,5,6,6a-octahydropentalen-2-yl]-N-(3-chloro-4-fluorophenyl)-3-methyl-4-imidazolecarboxamide] | 50 to 500 nM
25 | Cn1cnc(C2CC3CC(O)(c4c(F)c(NCC(C)(C)O)nn4C)CC3C2)c1C(=O)Nc1ccc(F)c(Cl)c1 (stereo not shown) [Example 63, N-(3-Chloro-4-fluorophenyl)-4-(5-(4-fluoro-3-((2-hydroxy-2-methylpropyl)amino)-1-methyl-1H-pyrazol-5-yl)-5-hydroxyoctahydropentalen-2-yl)-1-methyl-1H-imidazole-5-carboxamide] | < 10 nM
26 | Cn1cnc(C2CC3CC(O)(c4cc(C(F)(F)F)n[nH]4)CC3C2)c1C(=O)Nc1ccc(F)c(Cl)c1 (stereo not shown) [Example 179, N-(3-Chloro-4-fluorophenyl)-4-(5-hydroxy-5-(3-(trifluoromethyl)-1H-pyrazol-5-yl)octahydropentalen-2-yl)-1-methyl-1H-imidazole-5-carboxamide] | < 10 nM
27 | CCn1nc(NCC(C)(C)O)c(F)c1C1(O)CC2CC(c3ncn(C)c3C(=O)Nc3ccc(F)c(Cl)c3)CC2C1 (stereo not shown) [Example 215, N-(3-Chloro-4-fluorophenyl)-4-(5-(1-ethyl-4-fluoro-3-((2-hydroxy-2-methylpropyl)amino)-1H-pyrazol-5-yl)-5-hydroxyoctahydropentalen-2-yl)-1-methyl-1H-imidazole-5-carboxamide] | < 10 nM

same assay, conditions: viral load lowering, 5 days, qPCR of supernatant, read-out: VL HepAD38 EC50 range

Row | SMILES | EC50
28 | Cn1cnc(C2CC3CC(O)(c4cc(OCC(O)CO)nn4C)CC3C2)c1C(=O)Nc1ccc(F)c(Cl)c1 (single isomer, unassigned) [Example 206, N-(3-Chloro-4-fluorophenyl)-4-(5-(3-(2,3-dihydroxypropoxy)-1-methyl-1H-pyrazol-5-yl)-5-hydroxyoctahydropentalen-2-yl)-1-methyl-1H-imidazole-5-carboxamide] | < 10 nM
